{
  "source": "patent US20260034130A1",
  "about": "(priority 2022, published 2026)",
  "key": {"[1]": {"system": "patients with acute ischemic stroke or high-risk TIA", "source_text": "As used herein, the “Bleeding Academic Research Consortium (BARC) Type 3 criteria” are: a. Overt bleeding plus hemoglobin drop of 3 to <5 g/dL (provided hemoglobin drop is related to bleed); transfusion with overt bleeding; b. Overt bleeding plus hemoglobin drop ≥5 g/dL (provided hemoglobin drop is related to bleed); cardiac tamponade; bleeding requiring surgical intervention for control; bleeding requiring IV vasoactive agents; or c. Intracranial hemorrhage confirmed by autopsy, imaging, or lumbar puncture; intraocular bleed compromising vision. See, e.g., Roxana Mehran, et al. Standardized Bleeding Definitions for Cardiovascular Clinical Trials, Circulation.\nAs used herein, the “Bleeding Academic Research Consortium (BARC) Type 5 criteria” are: a. Probable fatal bleeding; or b. Definite fatal bleeding (overt or autopsy or imaging confirmation). See, e.g., Roxana Mehran, et al. Standardized Bleeding Definitions for Cardiovascular Clinical Trials, Circulation.\nAs used herein, the “Bleeding Academic Research Consortium (BARC) Type 2 criteria” are: any clinically overt sign of hemorrhage that “is actionable” and requires diagnostic studies, hospitalization, or treatment by a health care professional. See, e.g., Roxana Mehran, et al. Standardized Bleeding Definitions for Cardiovascular Clinical Trials, Circulation.\nThe secondary endpoint of major bleeding was determined by the occurrence of types 3 and 5 bleeding, according to the Bleeding Academic Research Consortium (BARC) classification system. Roxana Mehran, et al. Standardized Bleeding Definitions for Cardiovascular Clinical Trials, Circulation. […] Bleeding was additionally evaluated utilizing International Society on Thrombosis and Haemostasis (ISTH) and PLATelet inhibition and patient Outcomes (PLATO) criteria.\nThe population for safety analysis includes all participants who received at least one dose of study medication. This is the primary population used in safety analysis and is analyzed according to the treatment assigned at randomization.\nAnalysis of all safety data will be performed on participants treated with ≥1 dose of double-blind drug. The proportion of participants with major bleeding events (BARC types 3 and 5), as well as BARC-, ISTH-, and PLATO-defined criteria, will be summarized by treatment group. Additional summaries will include characteristics of cerebral microbleeds, hemorrhagic transformation of ischemic stroke, and asymptomatic intracranial bleeding. Adverse event and laboratory data, as well as PK and PD data, will be summarized."}, "[2]": {"system": "patients with acute ischemic stroke or high-risk TIA", "assay": "AXIOMATIC-SSP mRS at the time of first recurrent stroke", "format": "in vivo, human", "conditions": "for mRS Change from Baseline Mean / mRS Change from Baseline Median / mRS Value Mean / mRS Value Median: first recurrent stroke", "source_text": "(§1) National Institutes of Health Stroke Scale (NIHSS), Modified Rankin Scale (mRS), Montreal Cognitive Assessment (MoCA), and Digit Symbol Substitution Test (subtest of WAIS-IV) were collected at baseline (at randomization for NIHSS), on Days 21 and 90, and at the time of a new stroke event. MoCA and DSST (subset of WAIS-IV) were read by a third-party central laboratory blinded to treatment.\n(§2) Descriptive statistics and corresponding change from baseline (where applicable) assessed by the National Institutes of Health Stroke Score (NIHSS), modified Rankin Scale (mRS), Montreal Cognitive Assessment (MoCA), and Digit Symbol Substitution Test (subtest of WAIS-IV) were summarized by treatment group."}, "[3]": {"system": "patients with acute ischemic stroke or high-risk TIA", "assay": "AXIOMATIC-SSP NIHSS at the time of first recurrent stroke", "format": "in vivo, human", "conditions": "for NIHSS Change from Baseline Mean / NIHSS Change from Baseline Median / NIHSS Value Mean / NIHSS Value Median: first recurrent stroke", "source_text": "as §1, §2"}, "[4]": {"system": "intrinsic coagulation pathway", "assay": "AXIOMATIC-SSP pharmacodynamics: activated partial thromboplastin time (aPTT) and percent change from baseline", "format": "in vivo, human", "conditions": "for aPTT Percent Change from Baseline Mean / aPTT Percent Change from Baseline Median / aPTT Value Mean / aPTT Value Median: 50 mg BID"}, "[5]": {"system": "patients undergoing TKR (total knee replacement)", "conditions": "25 mg twice daily; cited from earlier work"}},
  "note": "Like-named read-outs stand apart in the source and are kept apart here.",
  "data": [
    {"smiles": "C[C@@H]1CCC[C@H](n2cnc(-c3cc(Cl)ccc3-n3cc(Cl)nn3)cc2=O)c2cc(ccn2)-c2c(cnn2C(F)F)NC1=O", "note": "[milvexian, (5R,9S)-9-(4-(5-chloro-2-(4-chloro-1H-1,2,3-triazol-1-yl)phenyl)-6-oxopyrimidin-1(6H)-yl)-21-(difluoromethyl)-5-methyl-21H-3-aza-1(4,2)-pyridina-2(5,4)-pyrazolacyclonaphan-4-one]", "values": [
      {"measurement": "BARC Type 5 (fatal) bleeding, subjects n", "setting": "[1]; 25 mg BID, N = 313", "result": 0},
      {"measurement": "BARC Type 5 bleeding, Incidence Rate (n/N %)", "setting": "[1]; 25 mg BID, N = 313", "result": "(0) %"},
      {"measurement": "BARC Type 5 (fatal) bleeding, subjects n", "setting": "[1]; 25 mg QD, N = 325", "result": 0},
      {"measurement": "BARC Type 5 bleeding, Incidence Rate (n/N %)", "setting": "[1]; 25 mg QD, N = 325", "result": "(0) %"},
      {"measurement": "BARC Type 5 (fatal) bleeding, subjects n", "setting": "[1]; 50 mg BID, N = 325", "result": 0},
      {"measurement": "BARC Type 5 bleeding, Incidence Rate (n/N %)", "setting": "[1]; 50 mg BID, N = 325", "result": "(0) %"},
      {"measurement": "BARC Type 5 (fatal) bleeding, subjects n", "setting": "[1]; 100 mg BID, N = 306", "result": 0},
      {"measurement": "BARC Type 5 bleeding, Incidence Rate (n/N %)", "setting": "[1]; 100 mg BID, N = 306", "result": "(0) %"},
      {"measurement": "BARC Type 5 (fatal) bleeding, subjects n", "setting": "[1]; 200 mg BID, N = 344", "result": 0},
      {"measurement": "BARC Type 5 bleeding, Incidence Rate (n/N %)", "setting": "[1]; 200 mg BID, N = 344", "result": "(0) %"},
      {"measurement": "fatal bleeding", "setting": "[1]; all treatment arms", "result": "No fatal bleeding"},
      {"measurement": "incidence rate (n/N %) of bleeding endpoint (BARC Type 3 and 5)", "setting": "[1]; human, in vivo, 90 days", "result": "0.6-1.6%"},
      {"measurement": "mRS Change from Baseline Mean", "setting": "[2]; 25 BID, N 10", "result": 2.1},
      {"measurement": "mRS Change from Baseline Median", "setting": "[2]; 25 BID, N 10", "result": 2.0},
      {"measurement": "mRS Value Mean", "setting": "[2]; 25 BID, N 10", "result": 2.6},
      {"measurement": "mRS Value Median", "setting": "[2]; 25 BID, N 10", "result": 3.0},
      {"measurement": "mRS Change from Baseline Mean", "setting": "[2]; 25 QD, N 13", "result": 1.9},
      {"measurement": "mRS Change from Baseline Median", "setting": "[2]; 25 QD, N 13", "result": 2.0},
      {"measurement": "mRS Value Mean", "setting": "[2]; 25 QD, N 13", "result": 2.7},
      {"measurement": "mRS Value Median", "setting": "[2]; 25 QD, N 13", "result": 3.0},
      {"measurement": "mRS Change from Baseline Mean", "setting": "[2]; 50 BID, N 11", "result": 1.7},
      {"measurement": "mRS Change from Baseline Median", "setting": "[2]; 50 BID, N 11", "result": 1.0},
      {"measurement": "mRS Value Mean", "setting": "[2]; 50 BID, N 11", "result": 2.3},
      {"measurement": "mRS Value Median", "setting": "[2]; 50 BID, N 11", "result": 2.0},
      {"measurement": "mRS Change from Baseline Mean", "setting": "[2]; 100 BID, N 8", "result": 2.4},
      {"measurement": "mRS Change from Baseline Median", "setting": "[2]; 100 BID, N 8", "result": 2.5},
      {"measurement": "mRS Value Mean", "setting": "[2]; 100 BID, N 8", "result": 2.9},
      {"measurement": "mRS Value Median", "setting": "[2]; 100 BID, N 8", "result": 3.0},
      {"measurement": "mRS Change from Baseline Mean", "setting": "[2]; 200 BID, N 19", "result": 1.4},
      {"measurement": "mRS Change from Baseline Median", "setting": "[2]; 200 BID, N 19", "result": 1.0},
      {"measurement": "mRS Value Mean", "setting": "[2]; 200 BID, N 19", "result": 1.8},
      {"measurement": "mRS Value Median", "setting": "[2]; 200 BID, N 19", "result": 1.0},
      {"measurement": "mRS score at the time of a new stroke event compared with placebo", "setting": "[2]; milvexian arms", "result": "numerically lower"},
      {"measurement": "NIHSS Change from Baseline Mean", "setting": "[3]; 25 BID, N 11", "result": 2.6},
      {"measurement": "NIHSS Change from Baseline Median", "setting": "[3]; 25 BID, N 11", "result": 3.0},
      {"measurement": "NIHSS Value Mean", "setting": "[3]; 25 BID, N 11", "result": 5.4},
      {"measurement": "NIHSS Value Median", "setting": "[3]; 25 BID, N 11", "result": 5.0},
      {"measurement": "NIHSS Change from Baseline Mean", "setting": "[3]; 25 QD, N 14", "result": 2.6},
      {"measurement": "NIHSS Change from Baseline Median", "setting": "[3]; 25 QD, N 14", "result": 2.0},
      {"measurement": "NIHSS Value Mean", "setting": "[3]; 25 QD, N 14", "result": 4.6},
      {"measurement": "NIHSS Value Median", "setting": "[3]; 25 QD, N 14", "result": 3.5},
      {"measurement": "NIHSS Change from Baseline Mean", "setting": "[3]; 50 BID, N 11", "result": 1.6},
      {"measurement": "NIHSS Change from Baseline Median", "setting": "[3]; 50 BID, N 11", "result": 1.0},
      {"measurement": "NIHSS Value Mean", "setting": "[3]; 50 BID, N 11", "result": 4.6},
      {"measurement": "NIHSS Value Median", "setting": "[3]; 50 BID, N 11", "result": 3.0},
      {"measurement": "NIHSS Change from Baseline Mean", "setting": "[3]; 100 BID, N 10", "result": 5.2},
      {"measurement": "NIHSS Change from Baseline Median", "setting": "[3]; 100 BID, N 10", "result": 2.5},
      {"measurement": "NIHSS Value Mean", "setting": "[3]; 100 BID, N 10", "result": 7.1},
      {"measurement": "NIHSS Value Median", "setting": "[3]; 100 BID, N 10", "result": 6.5},
      {"measurement": "NIHSS Change from Baseline Mean", "setting": "[3]; 200 BID, N 20", "result": 2.8},
      {"measurement": "NIHSS Change from Baseline Median", "setting": "[3]; 200 BID, N 20", "result": 1.0},
      {"measurement": "NIHSS Value Mean", "setting": "[3]; 200 BID, N 20", "result": 4.4},
      {"measurement": "NIHSS Value Median", "setting": "[3]; 200 BID, N 20", "result": 2.5},
      {"measurement": "NIHSS score at the time of a new stroke event compared with placebo", "setting": "[3]; milvexian arms", "result": "numerically lower"},
      {"measurement": "aPTT Percent Change from Baseline Mean", "setting": "[4]; DAY 1 24 h, N 269", "result": 85.17, "unit": "%"},
      {"measurement": "aPTT Percent Change from Baseline Median", "setting": "[4]; DAY 1 24 h, N 269", "result": 81.89, "unit": "%"},
      {"measurement": "aPTT Value Mean", "setting": "[4]; DAY 1 24 h, N 269", "result": 49.38, "unit": "s"},
      {"measurement": "aPTT Value Median", "setting": "[4]; DAY 1 24 h, N 269", "result": 48.60, "unit": "s"},
      {"measurement": "aPTT Percent Change from Baseline Mean", "setting": "[4]; DAY 21 anytime, N 268", "result": 115.62, "unit": "%"},
      {"measurement": "aPTT Percent Change from Baseline Median", "setting": "[4]; DAY 21 anytime, N 268", "result": 112.6, "unit": "%"},
      {"measurement": "aPTT Value Mean", "setting": "[4]; DAY 21 anytime, N 268", "result": 57.27, "unit": "s"},
      {"measurement": "aPTT Value Median", "setting": "[4]; DAY 21 anytime, N 268", "result": 55.10, "unit": "s"},
      {"measurement": "aPTT Percent Change from Baseline Mean", "setting": "[4]; DAY 90 anytime, N 241", "result": 97.32, "unit": "%"},
      {"measurement": "aPTT Percent Change from Baseline Median", "setting": "[4]; DAY 90 anytime, N 241", "result": 101.18, "unit": "%"},
      {"measurement": "aPTT Value Mean", "setting": "[4]; DAY 90 anytime, N 241", "result": 52.00, "unit": "s"},
      {"measurement": "aPTT Value Median", "setting": "[4]; DAY 90 anytime, N 241", "result": 52.60, "unit": "s"},
      {"measurement": "change in aPTT from baseline", "setting": "[4]; milvexian treated groups", "result": "Dose-dependent increases"},
      {"measurement": "efficacy versus enoxaparin in AXIOMATIC-TKR", "setting": "[5]", "result": "comparable efficacy to enoxaparin"}
    ]}
  ]
}
